The conditions of this data set: for aqueous solubility: pH 6.8.

≈ marks a conversion by molar mass, not a printed value.

With `COCc1ccc(-c2nc3c([nH]2)c(C)nn3C2CCCCC2)o1`, the intrinsic clearance, human liver microsomes was found to be 51.8 mL/min/kg; the intrinsic clearance, rat liver microsomes came to 485 mL/min/kg; the aqueous solubility was found to be 38 µg/mL (≈ 121 µM).
For the compound `COc1ccc2c(-c3ccccc3)cc3nnnn3c2c1`, the MDR1-MDCK efflux ratio worked out at 0.48 and the aqueous solubility came out at 0.15 µg/mL (≈ 0.543 µM).
In the case of `CC(C)n1ccc(C(=O)N2CCS(=O)(=O)C(C)(C)C2)n1`, the MDR1-MDCK efflux ratio came to 2.42; the intrinsic clearance, human liver microsomes is at most 4.74 mL/min/kg; the intrinsic clearance, rat liver microsomes stood at 33.7 mL/min/kg; the aqueous solubility was found to be 46.4 µg/mL (≈ 155 µM).
`CS(=O)(=O)N1CCC(Nc2ccc3ccc(F)cc3n2)CC1`: the intrinsic clearance, human liver microsomes is 5.9 mL/min/kg; the intrinsic clearance, rat liver microsomes was found to be 98 mL/min/kg; the aqueous solubility was determined as 52.8 µg/mL (≈ 163 µM).
Turning to `CCc1cccc(C)c1NC(=O)c1ccc(C)o1`, the MDR1-MDCK efflux ratio turned out to be 0.661; the intrinsic clearance, human liver microsomes is at most 4.74 mL/min/kg; the intrinsic clearance, rat liver microsomes came out at 172 mL/min/kg.
Take `CCN(Cc1ccncc1)[C@@H]1CN(C(=O)c2ccccc2)C[C@H]1O`: the MDR1-MDCK efflux ratio came out at 37.3; the intrinsic clearance, human liver microsomes amounted to 45.2 mL/min/kg; the intrinsic clearance, rat liver microsomes was found to be 361 mL/min/kg; the aqueous solubility was 115 µg/mL (≈ 354 µM).
Regarding `CCNC(=O)c1ccc(-c2cc(C)cc(OC)c2OC)nc1`, the MDR1-MDCK efflux ratio is 0.998; the intrinsic clearance, human liver microsomes was at most 4.74 mL/min/kg; the intrinsic clearance, rat liver microsomes was found to be 93.1 mL/min/kg; the aqueous solubility was 34.8 µg/mL (≈ 116 µM).
For `CC(C)(C)OC(=O)NCc1ccc(C(=N)NC(=O)OCc2ccccc2)cc1`, in that order: 2.23, 84.3 mL/min/kg, 1300 mL/min/kg and 2.59 µg/mL (≈ 6.75 µM).
Turning to `COc1ccc2nc(CN3CCC(O)(c4ccc(C)cc4)CC3)ccc2c1`, the MDR1-MDCK efflux ratio was determined as 0.485; the intrinsic clearance, human liver microsomes is 44.5 mL/min/kg; the intrinsic clearance, rat liver microsomes was 631 mL/min/kg; the aqueous solubility turned out to be 29.7 µg/mL (≈ 81.9 µM).
For `COc1ccc(-c2c(C)n[nH]c2C)cn1`, in that order: 0.678, at most 4.74 mL/min/kg, 52.2 mL/min/kg and 14.7 µg/mL (≈ 72.4 µM).
`Clc1ccc(COc2cccc(N3CCNCC3)c2)cc1`: the intrinsic clearance, human liver microsomes worked out at 5.23 mL/min/kg; the intrinsic clearance, rat liver microsomes stood at 320 mL/min/kg; the aqueous solubility was 23.2 µg/mL (≈ 76.6 µM).
For `O=C(Nc1ccccc1-c1cn2c(CN3CCNCC3)csc2n1)c1cnc2ccccc2n1`, in that order: 9.54 mL/min/kg, 19.2 mL/min/kg and 1.49 µg/mL (≈ 3.17 µM).
With `COc1ccnc(N2CC(O)(C3CC3)C2)n1`, the MDR1-MDCK efflux ratio was 0.711; the intrinsic clearance, human liver microsomes was at most 4.74 mL/min/kg; the intrinsic clearance, rat liver microsomes turned out to be 25.8 mL/min/kg.
The like results for `CCc1cc(=O)[nH]c(SCCN2CCCCC2)n1` were, in that order, 3.43, at most 4.74 mL/min/kg and 441 mL/min/kg.
For `CCCCOc1ccccc1-c1cc(C(=O)NCCc2cccs2)[nH]n1`, the MDR1-MDCK efflux ratio worked out at 0.459 and the aqueous solubility came to 0.37 µg/mL (≈ 1 µM).
As to `Fc1c(CN2CCC(c3nnc4ccccn34)CC2)cccc1OC1CC1`, the MDR1-MDCK efflux ratio was found to be 4.29; the intrinsic clearance, human liver microsomes was 15 mL/min/kg; the intrinsic clearance, rat liver microsomes was 120 mL/min/kg.
With `CC1CCC(NC(=O)c2oc3ccccc3c2CS(C)=O)CC1` (configuration not stated), the MDR1-MDCK efflux ratio was found to be 2.52; the intrinsic clearance, human liver microsomes turned out to be 15.2 mL/min/kg; the intrinsic clearance, rat liver microsomes is 154 mL/min/kg; the aqueous solubility worked out at 68.8 µg/mL (≈ 206 µM).
For `O=C(Nc1ccc2c(c1)N(CC(F)F)C(=O)CS2)C1CC=CC1`, the MDR1-MDCK efflux ratio is 0.742; the intrinsic clearance, human liver microsomes is 52.6 mL/min/kg; the intrinsic clearance, rat liver microsomes is 391 mL/min/kg.
For `OCCC1(CNc2ncc(Br)cn2)CC1`, in that order: 0.674, 8.65 mL/min/kg and 81.9 mL/min/kg.
`[2H]c1nc(C)nc([2H])c1-c1cc(NC[C@@H](C)c2cccc3c(C(=O)NC)ccnc23)ncn1`: the MDR1-MDCK efflux ratio was 106; the intrinsic clearance, human liver microsomes is 5.41 mL/min/kg; the intrinsic clearance, rat liver microsomes is 88.5 mL/min/kg.
`Cc1cc(NC(=O)c2c(F)cccc2Cl)no1` had an intrinsic clearance, human liver microsomes of at most 4.74 mL/min/kg and an intrinsic clearance, rat liver microsomes of 26 mL/min/kg.
In the case of `CN(Cc1ccccc1)C(=O)c1ccc(-n2cccn2)nc1`, the MDR1-MDCK efflux ratio is 0.566; the intrinsic clearance, human liver microsomes is at most 4.74 mL/min/kg; the intrinsic clearance, rat liver microsomes came out at 4990 mL/min/kg; the aqueous solubility came to 38.8 µg/mL (≈ 133 µM).
For `O=C(O)c1ccc(Nc2ncc3c(n2)-c2ccc(Cl)cc2C(c2c(F)cccc2F)=NC3)cc1`, in that order: 3.32, at most 4.74 mL/min/kg, 102 mL/min/kg and 47.1 µg/mL (≈ 98.8 µM).
As for `CC(=O)NCCCC(=O)Nc1ccc(Oc2ccccc2Cl)cc1`, the MDR1-MDCK efflux ratio was 8.25; the intrinsic clearance, human liver microsomes came to 9.61 mL/min/kg; the intrinsic clearance, rat liver microsomes was found to be 722 mL/min/kg.
In turn, `O=C(Cc1csc(-c2ccc(F)cc2)n1)N1CCC(n2c(=O)[nH]c3ccccc32)CC1` gave an intrinsic clearance, human liver microsomes of 346 mL/min/kg and an intrinsic clearance, rat liver microsomes of 2820 mL/min/kg.
Compound `O=C(NCCCn1ccnc1)N1CC2(CCCC2)c2ccccc21` gave an intrinsic clearance, human liver microsomes of 68.9 mL/min/kg; an intrinsic clearance, rat liver microsomes of 747 mL/min/kg; an aqueous solubility of 63.1 µg/mL (≈ 194 µM).
As for `Cc1cccc(OC[C@@]2(O)CN(C[C@]3(O)CC[C@@H](C(C)(C)C)CC3)CC[C@@H]2O)c1`, the MDR1-MDCK efflux ratio is 1.33; the intrinsic clearance, human liver microsomes was 234 mL/min/kg; the intrinsic clearance, rat liver microsomes was determined as 1790 mL/min/kg.
With `O=C(C1CC1)N1CCCC(C(=O)N2CCc3ccccc3C2Cc2ccccc2)C1` (configuration not stated), the intrinsic clearance, human liver microsomes came out at 643 mL/min/kg; the intrinsic clearance, rat liver microsomes came out at 4390 mL/min/kg; the aqueous solubility is 45 µg/mL (≈ 112 µM).
Regarding `CC(=O)Nc1ccc2nc(N3CCOCC3)sc2c1`, the MDR1-MDCK efflux ratio is 0.807; the intrinsic clearance, human liver microsomes was at most 4.74 mL/min/kg; the intrinsic clearance, rat liver microsomes was determined as 23.1 mL/min/kg; the aqueous solubility was found to be 44 µg/mL (≈ 159 µM).
The like results for `CN1CCCN(c2nc(C(F)(F)F)nc3cc4c(cc23)OCO4)CC1` were, in that order, 1.11, 22.3 mL/min/kg, 209 mL/min/kg and 43.3 µg/mL (≈ 122 µM).
Take `CC(C)(C=C(C#N)C(=O)N1CCC[C@@H](n2nc(-c3ccc(Oc4ccccc4)cc3F)c3c(N)ncnc32)C1)N1CCN(C2COC2)CC1`: the MDR1-MDCK efflux ratio was 35.9; the fraction unbound, human plasma was found to be 0.0189; the fraction unbound, rat plasma amounted to 0.0133; the intrinsic clearance, human liver microsomes is 535 mL/min/kg. This compound also showed an intrinsic clearance, rat liver microsomes of 1140 mL/min/kg and an aqueous solubility of 35.8 µg/mL (≈ 53.7 µM).
In the case of `CN(C)c1ccnc2sc3c(=O)n(N4CCCCCC4)cnc3c12`, the MDR1-MDCK efflux ratio turned out to be 3.06; the intrinsic clearance, human liver microsomes turned out to be 8.59 mL/min/kg; the intrinsic clearance, rat liver microsomes stood at 90.9 mL/min/kg.
On to `CN(Cc1ccccn1)c1nc2ccccc2o1`, for which the MDR1-MDCK efflux ratio was 0.718; the intrinsic clearance, human liver microsomes stood at 15 mL/min/kg; the intrinsic clearance, rat liver microsomes was 361 mL/min/kg; the aqueous solubility is 37.8 µg/mL (≈ 158 µM).
With `Cc1ccc2c(CC(=O)N(C)Cc3nnc4n3CCC4)coc2c1C`, the MDR1-MDCK efflux ratio turned out to be 66.1; the intrinsic clearance, human liver microsomes amounted to 36.5 mL/min/kg; the intrinsic clearance, rat liver microsomes is 651 mL/min/kg; the aqueous solubility came out at 54.5 µg/mL (≈ 161 µM).
The like results for `CCCN(C)C(=O)Nc1cccc(-c2nnc3n2CCCCC3)c1` were, in that order, 92.4, at most 4.74 mL/min/kg, 44.5 mL/min/kg and 39.4 µg/mL (≈ 120 µM).
For `O=C(CSCCc1ccncc1)Nc1ccccc1`, the MDR1-MDCK efflux ratio is 0.805; the intrinsic clearance, human liver microsomes was found to be 19.6 mL/min/kg; the intrinsic clearance, rat liver microsomes is 429 mL/min/kg.
Regarding `COCc1cc(-c2nc(CCc3ccccc3)n[nH]2)ccc1OC`, the MDR1-MDCK efflux ratio is 2.29; the intrinsic clearance, human liver microsomes worked out at 70.4 mL/min/kg; the intrinsic clearance, rat liver microsomes was 1100 mL/min/kg; the aqueous solubility came to 24.9 µg/mL (≈ 77.1 µM).
The like results for `CN(C)Cc1cccc(N/C(=C2\C(=O)Nc3cc(C(=O)N(C)C)ccc32)c2ccccc2)c1` were, in that order, 45.4, 76.2 mL/min/kg, 152 mL/min/kg and 65.7 µg/mL (≈ 149 µM).
Take `CC(C)(C)c1nc(O)c2nnn(C3CCNCC3)c2n1`: the intrinsic clearance, human liver microsomes was at most 4.74 mL/min/kg and the intrinsic clearance, rat liver microsomes is at most 10.7 mL/min/kg.
Consider `O=C(C1CCC1)N1CCC(c2ncc(-c3ccc(F)c(F)c3)[nH]2)CC1`, for which the MDR1-MDCK efflux ratio stood at 3.5; the intrinsic clearance, human liver microsomes was determined as 43.2 mL/min/kg; the intrinsic clearance, rat liver microsomes was determined as 2740 mL/min/kg; the aqueous solubility was 57.1 µg/mL (≈ 165 µM).
For `O=C(NC1(c2ccccc2)CCC1)c1cc(C2CC2)on1`, in that order: 0.543, 8.16 mL/min/kg, 192 mL/min/kg and 8.8 µg/mL (≈ 31.2 µM).
With `Cc1nc(C)c2c(C)c(C(=O)N(C)Cc3ccc(C)o3)sc2n1`, the MDR1-MDCK efflux ratio came to 1.1; the intrinsic clearance, human liver microsomes was 36 mL/min/kg; the intrinsic clearance, rat liver microsomes amounted to 2890 mL/min/kg; the aqueous solubility was 37.5 µg/mL (≈ 114 µM).
As to `CCCc1cc(N2CCc3c(nc(C4CC4)n3C)C2)n2ncnc2n1`, the MDR1-MDCK efflux ratio worked out at 38.3; the fraction unbound, human plasma was found to be 0.476; the fraction unbound, rat plasma was determined as 0.244; the intrinsic clearance, human liver microsomes came to 9.63 mL/min/kg. The intrinsic clearance, rat liver microsomes is 179 mL/min/kg and the aqueous solubility is 53.3 µg/mL (≈ 158 µM).
Consider `CCCc1noc(CN2CCN(c3ccccc3OC)CC2)n1`, for which the MDR1-MDCK efflux ratio is 0.743; the intrinsic clearance, human liver microsomes came to 27 mL/min/kg; the intrinsic clearance, rat liver microsomes amounted to 351 mL/min/kg.

The aqueous solubility is how much of the substance goes into solution per volume.

(Values after the Biogen ADME set (Fang et al. 2023).)
